Patent publication US20100273875A1, “Composition for External Application to Skin” (KAO CORPORATION, priority 2007, published 2010)

How the values were obtained:
[1] = tested on: hairless mice irradiated with UV-B; assay: Measurement of skin elasticity (Ue, Cutometer), Example 1; assay type: in vivo; details: 100 μL/day after UV-B, five times a week over 12 weeks
Description: (§1) Six-week-old ICR/HR female mice prepared by mating HR/HR mice with HaM/ICR mice were used as wrinkle model animals (wrinkle-formed hairless mice). The mice were allowed to take feed and water freely and raised in an ultraviolet-free environment of a temperature of 23° C. and a humidity of 55%.
(§2) The hairless mice raised as above were divided into 7 groups each having 8 mice and were irradiated with UV-B. UV-B irradiation was performed according to a known general method described in Tsukahara et al. (Br. J. Dermatol., 2004, 151, p. 984-994) or the like. Specifically, the hairless mice raised as above were placed in cages and irradiated with UV-B using Toshiba SE lamps. Irradiation was performed at an irradiance level of 40 to 50 mJ/cm^2, which corresponds to 0.8 to 1 MED (minimal erythema dose) for general 6-week-old hairless mice, over 12 weeks five times a week.
(§3) Samples to be applied to the hairless mice were prepared as 1% Exemplified Compound (1)/90% ethanol (EtOH) solution, 3% Exemplified Compound (1)/90% EtOH solution, 1% Exemplified Compound (2)/90% EtOH solution, 1% Exemplified Compound (3)/90% EtOH solution, 0.1% Exemplified Compound (4)/90% EtOH solution, and 1% Exemplified Compound (5)/90% EtOH solution.
(§4) Immediately after the ultraviolet ray irradiation, 90% EtOH (control) and the samples prepared as above were applied to the hairless mice of the respective groups over 12 weeks with five times a week at a dose of 100 μL/day. The groups of the hairless mice applied with the samples include “90% EtOH control group” consisting of the mice applied with 90% EtOH, “1%-compound 1 group” consisting of the mice applied with 1% Exemplified Compound (1)/90% EtOH solution, “3%-compound 1 group” consisting of the mice applied with 3% Exemplified Compound (1)/90% EtOH solution, “1%-compound 2 group” consisting of the mice applied with 1% Exemplified Compound (2)/90% EtOH solution, “1%-compound 3 group” consisting of the mice applied with 1% Exemplified Compound (3)/90% EtOH solution, “0.1%-compound 4 group” consisting of the mice applied with 0.1% Exemplified Compound (4)/90% EtOH solution, and “1%-compound 5 group” consisting of the mice applied with 1% Exemplified Compound (5)/90% EtOH solution.
(§5) Measurement of skin elasticity was performed by a known method described in Tsukahara K et al. (Br. J. Dermatol., 2004, 151, p. 984-994) using Cutometer SEM575 (C+K Corporation) to measure a displacement formed in 2 seconds in total with a 1-second suction of 100 mb, followed by a 1-second relaxation period. Measurement was performed five times for each mouse to determine Ue, which is a parameter of an instantaneous elasticity displacement. The Ue value of the 90% EtOH control group was defined as 100, and Ue values of the respective groups were determined.

[2] = tested on: hairless mice irradiated with UV-B; assay: Comprehensive evaluation of photoaging- and wrinkle-preventing effect, Example 1; assay type: in vivo
Description: as §1, §2, §3, §4
(§6) Five-grade evaluation for wrinkles was performed to classify wrinkles into grades 0 to 4 by reference to the method described in Bisselt et al. (Photochem. Photobiol., 1989, 50, p. 763-769) by a known method described in Tsukahara et al. (Br. J. Dermatol., 2004, 151, p. 984-994) or the like.
(§7) The collected replicas were cut out into pieces with a diameter of 1.8 cm, and the pieces were lined with the impression material to correct the pieces and subjected to an image analysis. The image analysis was performed using PIAS LA-555 (PIAS Corporation) by irradiating each piece with light from a direction of oblique 30 degrees to quantify shadows formed in an area of 10 mm×10 mm (image analysis area ratio (%)).
as §5

[3] = tested on: hairless mice irradiated with UV-B; assay: Replica image analysis (image analysis area ratio), Example 1; assay type: in vivo; details: 100 μL/day after UV-B, five times a week over 12 weeks
Description: as §1, §2, §3, §4
Replica collection and image analysis were performed as described below. A replica was collected from the skin of the back of each hairless mouse using a rubber-based silicon impression material (GC Corporation) by a known method described in Tsukahara K et al. (Br. J. Dermatol., 2004, 151, p. 984-994) or the like.
as §7
The image analysis area ratio of the 90% EtOH control group was defined as 100, and the image analysis area ratios (%) of the respective groups were evaluated based on the image analysis area ratios obtained by the quantification.

[4] = tested on: hairless mice irradiated with UV-B; assay: Evaluation of wrinkle-preventing effect (visual evaluation of wrinkles), Example 1; assay type: in vivo; details: 100 μL/day after UV-B, five times a week over 12 weeks
Description: as §1, §2, §3, §4, §6
The score of the 90% EtOH control group was defined as 100, and wrinkle scores of the respective groups were evaluated based on the five-grade evaluation.

[5] = tested on: wrinkle-formed hairless mice; assay: Evaluation of wrinkle-improving effect (visual evaluation of wrinkles), Example 2; assay type: in vivo; details: 1% in 90% EtOH, five times a week over 6 weeks, after 10 weeks of UV-B; versus 90% EtOH control group
Description: Wrinkle-formed hairless mice were prepared according to the description in the sections (1) and (2)(ii) of the above Example 1 by irradiating 6-week-old ICR/HR female mice, prepared by mating HR/HR with HaM/ICR, with UV-B over 10 weeks five times a week.
The hairless mice having wrinkles formed by irradiation with UV-B were visually evaluated with reference to the method described in Bisselt et al. (Photochem. Photobiol., 1989, 50, p. 763-769) by a known method described in Tsukahara et al. (Br. J. Dermatol., 2004, 151, p. 984-994) to divide the mice into two groups each having eight mice so that the average values of wrinkle scores (evaluated according to the description in the section 2)[…])) of the respective groups were almost the same.
A sample to be applied to the wrinkle-formed hairless mice was prepared as 1% compound (1)/90% EtOH solution.
The 90% EtOH (control) and the sample prepared as above were applied to the wrinkle-formed hairless mice of the respective groups over 6 weeks with five times a week at a dose of […]. The groups of the wrinkle-formed hairless mice applied with the samples include “90% EtOH control group” consisting of the mice applied with 90% EtOH, and “1%-compound 1 group” consisting of the mice applied with 1% Exemplified Compound (1)/90% EtOH solution. […]

[6] = David Malka et al., Journal of Hepathology, 1997; cited from earlier work

Compound	effect of inhibiting the decrease in skin elasticity (Ue) ([1]; 1% in 90% EtOH)	photoaging-preventing and wrinkle-preventing effects (comprehensive evaluation) ([2]; 1% in 90% EtOH)	wrinkle formation inhibiting effect (replica image analysis) ([3]; 1% in 90% EtOH)	wrinkle formation inhibiting effect (wrinkle score, visual evaluation) ([4]; 1% in 90% EtOH)	further results
CCCCCCCCCCCC(=O)NCCN(C)C [compound 5, (2-dimethylaminoethyl)-amide dodecanoate]	maximum effect of inhibiting the decrease in skin elasticity	high	maximum effect of inhibiting wrinkle formation	maximum effect of inhibiting wrinkle formation	–
CCCCCCCCCCCC(=O)OCCN(C)C [compound 1, 2-dimethylamino-ethyl dodecanoate]	decrease in this order	high	decrease in this order	decrease in this order	effect of inhibiting the decrease in skin elasticity (Ue) ([1]; 3% in 90% EtOH): decrease in this order; wrinkle score (wrinkle-improving effect, visual evaluation) [5]: lower than that of the 90% EtOH control group; photoaging-preventing and wrinkle-preventing effects (comprehensive evaluation) ([2]; 3% in 90% EtOH): high; wrinkle formation inhibiting effect (replica image analysis) ([3]; 3% in 90% EtOH): decrease in this order; wrinkle formation inhibiting effect (wrinkle score, visual evaluation) ([4]; 3% in 90% EtOH): decrease in this order
CCN(CCCc1ccccc1)CCCc1ccccc1 [alverine]	–	–	–	–	toxicity [6]: high toxicity
CCCCCCCCCCCCOCCN(C)C [compound 4, (2-dodecyloxy-ethyl)-dimethylamine]	–	–	–	–	effect of inhibiting the decrease in skin elasticity (Ue) ([1]; 0.1% in 90% EtOH): decrease in this order; photoaging-preventing and wrinkle-preventing effects (comprehensive evaluation) ([2]; 0.1% in 90% EtOH): high; wrinkle formation inhibiting effect (replica image analysis) ([3]; 0.1% in 90% EtOH): decrease in this order; wrinkle formation inhibiting effect (wrinkle score, visual evaluation) ([4]; 0.1% in 90% EtOH): decrease in this order
CCCCCCCCCCCCNC(=O)CN(C)C [compound 2, 2-Dimethylamino-N-dodecyl-acetamide]	decrease in this order	high	decrease in this order	decrease in this order	–
CCCCCCCCCCCCOC(=O)CN(C)C [compound 3, Dodecyl dimethylamino acetate]	decrease in this order	high	decrease in this order	decrease in this order	–
